These results are taken from patent US12600731B2, “Isoxazolo[5,4-H]quinazoline compounds as protein kinase inhibitors” (CHENGDU CYNOGEN BIO-PHARMACEUTICAL TECHNOLOGY CO., LTD., priority 2019, dated 2026).

The IC50 is the concentration needed to halve the response being measured.

Holding throughout (type): biochemical
Assay [1] concerns the target CDK4/cyclin D3 (Homo sapiens, UniProt P11802). The experiment in a line: Kinase activity assay, Caliper Mobility Shift Assay, CDK4/cyclin D3. Particulars: 10 nM kinase, ATP 250 μM, 150 minutes at room temperature. Here is the method: (§1) The inhibitory effect of compounds against the kinase CDK4/cyclin D3 was detected by Caliper Mobility Shift Assay method. The final concentration of the compounds to be tested was set at 10 concentrations starting from 1 μM by 3-fold serial dilution. 5 μL of compounds at 5-fold final concentration and 10 μL of CDK4/cyclin D3 kinase solution at a final concentration of 10 nM was added to a 384-well reaction plate, respectively. The plate was pre-incubated for 10 min at room temperature (with negative control wells containing 10 μL of kinase buffer and 5 μL of 5% DMSO; positive control wells containing 10 μL of kinase solution and 5 μL of 5% DMSO). The reaction was initiated by adding 10 μL of ATP at a final concentration of 250 μM and the corresponding substrate peptide mixture at room temperature for 150 minutes. 30 μL of stop detection solution containing EDTA was added to stop the kinase reaction. Caliper EZ Reader was used to read the conversion rate. Inhibition rate %=(average conversion rate of positive control %−conversion rate of sample %)/(average conversion rate of positive control %−average conversion rate of negative control %). wherein: negative control wells represent the conversion rate readings of wells without enzymatic activity; positive control wells represent conversion readings for wells with no compound inhibition. The log(inhibitor) vs. response—Variable slope of the analysis software GraphPad Prism 5 was used with log concentration value as the X-axis and the percent inhibition rate as the Y-axis to fit the dose-response curve, the IC50 value of each compound on the enzyme activity was thus obtained. Calculation formula: Y=Bottom+(Top−Bottom)/(1+10^((Log IC50−X)*HillSlope)).

In assay [2] the target is CDK6/Cyclin D3 (Homo sapiens, UniProt Q00534). The assay can be described thus: Kinase activity assay, CDK6/Cyclin D3 (tested in a similar manner). As to conditions: tested in a similar manner to CDK4/cyclin D3. Here is the method:
as §1
(§2) The IC50 values for CDK6/Cyclin D3 and CDK2/Cyclin A2 of compounds of the present disclosure were tested in a similar manner.

In assay [3] the target is CDK2/Cyclin A2 (Homo sapiens, UniProt P24941). The experiment in a line: Kinase activity assay, CDK2/Cyclin A2 (tested in a similar manner). As to conditions: tested in a similar manner to CDK4/cyclin D3. Here is the method:
as §1, §2

CDK4/cyclin D3, sequence (P11802 whole entry, species assumed): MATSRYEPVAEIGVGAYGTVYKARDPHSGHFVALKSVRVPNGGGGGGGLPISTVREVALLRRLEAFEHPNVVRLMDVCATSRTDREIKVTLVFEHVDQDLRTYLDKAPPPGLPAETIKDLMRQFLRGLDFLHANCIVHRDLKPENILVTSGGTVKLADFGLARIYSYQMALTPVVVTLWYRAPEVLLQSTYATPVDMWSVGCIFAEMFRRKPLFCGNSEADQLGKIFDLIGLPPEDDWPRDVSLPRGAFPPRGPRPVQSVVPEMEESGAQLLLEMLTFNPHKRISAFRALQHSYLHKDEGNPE
CDK4/cyclin D3, sequence (P30281 whole entry partner, species assumed): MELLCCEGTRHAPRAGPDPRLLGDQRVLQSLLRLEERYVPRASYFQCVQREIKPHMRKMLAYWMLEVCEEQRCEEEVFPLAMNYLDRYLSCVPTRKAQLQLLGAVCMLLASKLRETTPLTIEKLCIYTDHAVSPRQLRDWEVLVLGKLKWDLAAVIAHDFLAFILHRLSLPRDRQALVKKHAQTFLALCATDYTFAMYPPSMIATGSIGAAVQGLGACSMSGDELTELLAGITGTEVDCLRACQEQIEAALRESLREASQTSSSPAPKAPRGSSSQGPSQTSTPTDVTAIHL
CDK6/Cyclin D3, sequence (Q00534 whole entry, species assumed): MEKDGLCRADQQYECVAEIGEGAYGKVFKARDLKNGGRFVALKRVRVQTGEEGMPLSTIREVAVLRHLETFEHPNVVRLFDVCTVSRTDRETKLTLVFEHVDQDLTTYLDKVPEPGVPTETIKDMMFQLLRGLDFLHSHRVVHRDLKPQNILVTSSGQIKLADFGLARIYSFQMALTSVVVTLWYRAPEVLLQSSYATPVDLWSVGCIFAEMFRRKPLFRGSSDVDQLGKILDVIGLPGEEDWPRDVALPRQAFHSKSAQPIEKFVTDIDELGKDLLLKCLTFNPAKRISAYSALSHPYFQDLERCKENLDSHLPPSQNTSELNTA
CDK6/Cyclin D3, sequence (P30281 whole entry partner, species assumed): as the sequence (P30281 whole entry partner, species assumed) above

Turning to `CC(C)c1noc2ccc3cnc(Nc4ccc(N5CCOCC5)cc4)nc3c12` [Compound I-29, 9-isopropyl-N-(4-morpholinophenyl) isoxazolo[5,4-H]quinazolin-2-amine], the IC50 came out at 14 nM in assay [1], 36 nM in assay [2] and 10 nM in assay [3].
On to `CC(C)c1noc2ccc3cnc(Nc4ccc(N5CCC(CCCO)CC5)cc4)nc3c12` [Compound I-30, 3-(1-(4-((9-isopropylisoxazolo[5,4-h]quinazolin-2-yl)amino)phenyl)piperidin-4-yl)propan-1-ol], for which the IC50 was determined as 100 nM in assay [1], 245 nM in assay [2] and 140 nM in assay [3].
Take `COc1cc(N2CCN(C)CC2)ccc1Nc1ncc2ccc3onc(C(C)C)c3c2n1` [Compound I-31, 9-isopropyl-N-(2-methoxy-4-(4-methylpiperazin-l-yl)phenyl)isoxazolo [5,4-H]quinazolin-2-amine]: the IC50 came out at 98 nM in assay [1], 340 nM in assay [2] and 244 nM in assay [3].
On the same counts, the results for `CC(C)c1noc2ccc3cnc(Nc4ccc(N5CCOCC5)cc4F)nc3c12` [Compound I-32, N-(2-fluoro-4-morpholinophenyl)-9-isopropylisoxazolo[5,4-h] quinazolin-2-amine] are 150 nM, 359 nM and 294 nM.
In the case of `CC(C)c1noc2ccc3cnc(Nc4ccc(N5CCNCC5)c(F)c4)nc3c12` [Compound I-33, N-(3-fluoro-4-(piperazin-1-yl)phenyl)-9-isopropylisoxazolo[5,4-H] quinazolin-2-amine], the IC50 in assay [1] came out at 3 nM; in assay [2] it was 7 nM; in assay [3] it was 10 nM.
Turning to `CC(C)c1noc2ccc3cnc(Nc4ccc(N5CCN(C)CC5)c(F)c4)nc3c12` [Compound I-34], the IC50 in assay [1] came out at 3 nM; in assay [2], 9 nM; in assay [3] it was 12 nM.
As to `CCN1CCN(c2ccc(Nc3ncc4ccc5onc(C(C)C)c5c4n3)cc2F)CC1` [Compound I-35, N-(4-(4-ethylpiperazin-1-yl)-3-fluorophenyl)-9-isopropylisoxazolo[5,4-H]quinazolin-2-amine], the IC50 is 3 nM in assay [1], 8 nM in assay [2] and 10 nM in assay [3].
On the same counts, the results for `CC(C)c1noc2ccc3cnc(Nc4ccc(N5CCOCC5)c(F)c4)nc3c12` [Compound I-36, N-(3-fluoro-4-morpholinophenyl)-9-isopropylisoxazolo[5,4-H] quinazolin-2-amine] are 20 nM, 34 nM and 22 nM.
In the case of `COc1ccc2cc(Nc3ncc4ccc5onc(C(C)C)c5c4n3)ccc2n1` [Compound I-37, 9-isopropyl-N-(2-methoxyquinolin-6-yl)isoxazolo[5,4-H]quinazolin-2-amine], the IC50 in assay [1] amounted to 34 nM; in assay [2], 68 nM; in assay [3], 82 nM.
The like results for `CC(C)c1noc2c1-c1nc(Nc3ccc(N4CCNCC4)c(F)c3)ncc1CC2` [Compound I-38, N-(3-fluoro-4-(piperazin-1-yl)phenyl)-9-isopropyl-5,6-dihydroisoxazolo[5,4-H] quinazolin-2-amine] were, in that order, 7 nM, 21 nM and 10 nM.
For `CC(C)c1noc2c1-c1nc(Nc3ccc(N4CCN(C)CC4)c(F)c3)ncc1CC2` [Compound I-39, N-(3-fluoro-4-(4-methylpiperazin-1-yl)phenyl)-9-isopropyl-5,6-dihydroisoxazolo[5,4-H]quinazolin-2-amine], the figures for the IC50 in assay [1], in assay [2] and in assay [3] were 6 nM, 17 nM and 11 nM, respectively.
On to `CC(C)c1noc2ccc3cnc(Nc4cccc(S(N)(=O)=O)c4)nc3c12` [Compound I-40, 3-((9-isopropylisoxazolo[5,4-h]quinazolin-2-yl)amino)benzenesulfonamide], for which the IC50 in assay [1] is 2 nM; in assay [2] it was 6 nM; in assay [3], 10 nM.
Take `CC(C)c1noc2ccc3cnc(Nc4ccc(N(CCN5CCOCC5)S(C)(=O)=O)cc4)nc3c12` [Compound I-41, N-(4-((9-isopropylisoxazolo[5,4-H]quinazolin-2-yl)amino)phenyl)-N-(2-morpholinoethyl) methanesulfonamide]: the IC50 turned out to be 2 nM in assay [1], 7 nM in assay [2] and 12 nM in assay [3].
`CC(C)c1noc2ccc3cnc(Nc4ccc(C(=O)N5CCNCC5)cc4)nc3c12` [Compound I-42, (4-((9-isopropylisoxazolo[5,4-H]quinazolin-2-yl)amino)phenyl) (piperazin-1-yl)methanone]: the results for the IC50 in assay [1], in assay [2] and in assay [3] were 3 nM, 9 nM and 5 nM, respectively.
Turning to `CC(C)c1noc2ccc3cnc(Nc4ccc(C(=O)N5CCN(C)CC5)cc4)nc3c12` [Compound I-43, (4-((9-isopropylisoxazolo[5,4-H]quinazolin-2-yl)amino)phenyl) (4-methylpiperazin-1-yl)methanone], the values for the IC50 in assay [1], in assay [2] and in assay [3] were 1 nM, 5 nM and 4 nM, respectively.
On the same counts, the results for `CC(C)c1noc2ccc3cnc(Nc4ccc(OCCN(C)C)cc4)nc3c12` [Compound I-44, N-(4-(2-(dimethylamino)ethoxy)phenyl)-9-isopropylisoxazolo[5,4-h]quinazolin-2-amine] are 2 nM, 4 nM and 10 nM.
